From patent US20220211703A1, “METHOD FOR TREATING COUGH BY USING DIAMINOPYRIMIDINE COMPOUND” (BEIJING TIDE PHARMACEUTICAL CO., LTD., priority 2019, published 2022) come the findings set out here.

For experiment [1], the target named is T1, P2X3 (Rattus norvegicus, UniProt P49654).
T1 construct: The primary cells of rat DRG were transferred; endogenous in cells; host or cells: primary rat dorsal root ganglion cells, cultured ex vivo
T1 sequence (P49654 1-397): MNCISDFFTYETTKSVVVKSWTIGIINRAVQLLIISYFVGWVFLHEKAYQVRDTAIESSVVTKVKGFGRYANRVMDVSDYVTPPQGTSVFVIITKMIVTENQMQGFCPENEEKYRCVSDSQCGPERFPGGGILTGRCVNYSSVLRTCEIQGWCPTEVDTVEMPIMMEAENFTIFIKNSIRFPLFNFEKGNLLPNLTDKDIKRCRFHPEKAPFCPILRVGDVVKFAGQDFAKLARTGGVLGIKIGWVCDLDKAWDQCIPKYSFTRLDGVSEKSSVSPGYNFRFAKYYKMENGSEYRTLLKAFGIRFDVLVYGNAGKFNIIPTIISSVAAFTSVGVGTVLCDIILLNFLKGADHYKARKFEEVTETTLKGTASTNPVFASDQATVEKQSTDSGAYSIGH
Description: Inhibition on the P2X3-mediated current in ex vivo cultured rat dorsal root ganglion (whole-cell patch clamp). In kind it is cell-based. As to conditions: primary cells of rat DRG, clamping potential -60 mV, 5 minutes pre-treatment, Hill equation fit; read-out: IC50, inhibition of P2X3-mediated current induced by 30 μM a,b-Me ATP. Here is the method: Membrane current was recorded by employing HEKA EPC-10 patch clamp amplifier and PATCHMASTER acquisition system. The primary cells of rat DRG were transferred to an about 1 ml bath embedded in an inverted microscope platform, and an extracellular fluid (2 mM CaCl2, 1 mM MgCl2, […] KCl, 155 mM NaCl, 12 mM glucose and 10 mM HEPES (pH=7.4)) was perfused by using a gravitational perfusion system. The P2X3-mediated current of a single cell was recorded in a whole cell recording mode. After formation of a gigaseal and rapture of the membrane, clamping potential was set at −60 mV. 30 μM a,b-Me ATP (also known as “α,β-meATP”) was perfused for 5 seconds, and the P2X3-mediated current induced at this point was taken as a control current. The cells were then treated with a solution of compound 66 at a specific concentration (prepared with the extracellular fluid) for 5 minutes. The solution of compound 66 at this concentration and 30 μM a,b-Me ATP were co-applied to induce a cell current (see FIG. 6 for the effect of the compound on the current), and an inhibition rate relative to the control current was calculated according to the following formula:
(§1) Inhibition Rate Relative to the Control Current=(1−I2/I1)*100%
(§2) wherein I1 represents the control current, and I2 represents the current after application of compound 66. […]

In experiment [2] the target is T2, P2X3 (Homo sapiens, UniProt P56373).
T2 construct: expressed in transfected cells; host or cells: 1321N1 cells, stably transfected
T2 sequence (P56373 1-397): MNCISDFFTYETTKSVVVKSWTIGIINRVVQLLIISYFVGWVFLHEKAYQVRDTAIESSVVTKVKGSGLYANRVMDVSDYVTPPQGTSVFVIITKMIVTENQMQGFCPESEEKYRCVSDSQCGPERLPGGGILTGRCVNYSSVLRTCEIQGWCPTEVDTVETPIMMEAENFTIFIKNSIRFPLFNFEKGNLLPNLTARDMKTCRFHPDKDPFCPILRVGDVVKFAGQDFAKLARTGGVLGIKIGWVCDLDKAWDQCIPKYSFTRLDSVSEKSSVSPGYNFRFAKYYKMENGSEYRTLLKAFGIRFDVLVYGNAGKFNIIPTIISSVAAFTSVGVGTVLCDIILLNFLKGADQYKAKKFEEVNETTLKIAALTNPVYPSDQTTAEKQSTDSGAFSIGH
Description: Inhibition on the P2X3-mediated current in 1321N1 cell line stably transfected with P2X3 (whole-cell patch clamp). The note with it: 1321N1 P2X3 stable transfected cells, clamping potential -60 mV, 5 minutes pre-treatment, Hill equation fit; read-out: IC50, inhibition of P2X3-mediated current induced by 10 μM Na2ATP. In kind it is cell-based. The method, then: Membrane current was recorded by employing HEKA EPC-10 patch clamp amplifier and PATCHMASTER acquisition system. 1321N1 P2X3 stable transfected cells were transferred to an about 1 ml bath embedded in an inverted microscope platform, and an extracellular fluid (2 mM CaCl2, 1 mM MgCl2, 5 mM KCl, 155 mM NaCl, 12 mM glucose and 10 mM HEPES (pH=7.4)) was perfused by using a gravitational perfusion system. The P2X3-mediated current of a single cell was recorded in a whole cell recording mode. After formation of a gigaseal and rapture of the membrane, clamping potential was set at −60 mV. 10 μM Na2ATP was perfused for 5 seconds, and the P2X3-mediated current induced at this point was taken as a control current. The cells were then treated with a solution of compound 66 at a specific concentration (prepared with the extracellular fluid) for 5 minutes. The solution of compound 66 at this concentration and 10 μM Na2ATP were co-applied to induce a cell current (see FIG. 4 for the effect of the compound on the current), and an inhibition rate relative to the control current was calculated according to the following formula:
as §1, §2

Experiment [3] deals with Dunkin-Hartley guinea pigs. Put plainly: Effect on the guinea pig cough model (ATP or histamine plus citric acid induced cough). In kind it is in vivo. The note with it: oral administration 30 minutes to 1 hour before inducing cough, 250 uM ATP or 0.6 mM histamine then 0.5 M citric acid nebulized, FIG. 1 to FIG. 3 (doses 5.1-92 mg/kg). The method, then: In this test, dextromethorphan (purchased from Shanghai Send Pharmaceutical Technology Co., Ltd.) was used as a positive control compound. A clinical control compound having the following structure was employed, and it was prepared according to the method described in WO 2008/040652 A1:
Test animals were 300-350 g Dunkin-Hartley guinea pigs (purchased from Shanghai Jiagan Biotechnology Co., Ltd). After being purchased and adaptively fed for one week, the animals were randomly divided into groups based on body weight, each test group comprising 10-15 test animals The vehicle (a 0.5% CMCNa solution), the test compounds, the positive control compound (dextromethorphan) or the clinical control compound were orally administrated (compounds at test dosages were respectively added to a 0.5% CMCNa solution, uniformly dispersed through thorough ultrasonic treatment; the solution was vortex mixed again before administration to each animal, and the test dosage ranged from 1 mg/kg to 100 mg/kg). Administration was performed 30 minutes to 1 hour before inducing cough.
Method of inducing cough: test animals were put in a body pneumotachograph (Buxco) and allowed to stand for several minutes. […] Starting from the nebulization of citric acid, the number of coughs of the animals in 10 minutes were recorded by employing a small animal pulmonary function detector (Buxco).

With `C#Cc1cc(Oc2cnc(N)nc2N)c(C(C)C)cn1` [Compound 66], the figures for the IC50 at P2X3 [1] and on P2X3 [2] were 0.0283 µM and 0.0262 µM, respectively. In experiment [3], the “antitussive effect (number of coughs in 10 minutes)” value is reported as “significant antitussive effect, which was better than that of the clinical control compound”.
Consider `CNc1cc(Oc2cnc(N)nc2N)c(C(C)C)cn1` [Compound 22], for which, in experiment [3], the “antitussive effect (number of coughs in 10 minutes)” value is “significant antitussive effect, which was better than that of the clinical control compound”.
